The values below come from ChEMBL document CHEMBL5104143, “Synthesis and evaluation of hydrazinyl-containing pyrrolo[2,3-d]pyrimidine series as potent, selective and oral JAK1 inhibitors for the treatment of rheumatoid arthritis” (Bioorg Med Chem Lett, 2022).

Test [1] addresses Tyrosine-protein kinase JAK1 (Homo sapiens, UniProt P23458). Nature of the test: Inhibition of JAK1 (unknown origin).
The target in test [2] is Tyrosine-protein kinase JAK2 (Homo sapiens, UniProt O60674).
Description: Inhibition of JAK2 (unknown origin)
In test [3] the target is T1, Tyrosine-protein kinase JAK3 (Homo sapiens, UniProt P52333).
T1 sequence (P52333 whole entry): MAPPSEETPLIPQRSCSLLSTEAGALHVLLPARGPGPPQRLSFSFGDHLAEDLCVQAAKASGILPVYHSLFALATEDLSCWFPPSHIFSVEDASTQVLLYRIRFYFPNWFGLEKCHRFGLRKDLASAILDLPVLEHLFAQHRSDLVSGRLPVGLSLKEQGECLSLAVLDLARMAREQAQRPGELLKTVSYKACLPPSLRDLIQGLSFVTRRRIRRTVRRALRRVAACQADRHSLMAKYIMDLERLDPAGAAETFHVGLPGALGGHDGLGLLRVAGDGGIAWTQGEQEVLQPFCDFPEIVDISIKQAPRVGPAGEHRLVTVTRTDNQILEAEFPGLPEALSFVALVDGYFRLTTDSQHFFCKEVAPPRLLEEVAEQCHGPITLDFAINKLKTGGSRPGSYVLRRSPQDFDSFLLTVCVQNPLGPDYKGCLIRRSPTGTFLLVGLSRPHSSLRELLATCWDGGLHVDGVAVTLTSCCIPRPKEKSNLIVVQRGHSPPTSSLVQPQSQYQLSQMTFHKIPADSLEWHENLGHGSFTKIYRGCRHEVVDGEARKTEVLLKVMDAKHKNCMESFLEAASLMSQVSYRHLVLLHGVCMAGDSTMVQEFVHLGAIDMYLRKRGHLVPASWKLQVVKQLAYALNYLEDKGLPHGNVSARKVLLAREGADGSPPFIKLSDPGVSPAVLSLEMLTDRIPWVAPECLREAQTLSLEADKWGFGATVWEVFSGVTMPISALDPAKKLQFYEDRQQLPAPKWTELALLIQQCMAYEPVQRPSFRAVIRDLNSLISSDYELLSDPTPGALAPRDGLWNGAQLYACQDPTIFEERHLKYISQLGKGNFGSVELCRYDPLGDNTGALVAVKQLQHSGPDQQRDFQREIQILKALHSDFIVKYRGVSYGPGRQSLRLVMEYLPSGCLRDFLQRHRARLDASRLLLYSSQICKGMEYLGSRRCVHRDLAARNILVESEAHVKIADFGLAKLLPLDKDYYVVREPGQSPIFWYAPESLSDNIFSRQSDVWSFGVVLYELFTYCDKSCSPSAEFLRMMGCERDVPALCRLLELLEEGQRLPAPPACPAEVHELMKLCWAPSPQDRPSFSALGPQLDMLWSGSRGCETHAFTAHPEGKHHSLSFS
Description: Inhibition of JAK3 (unknown origin)

Each structure is given as a SMILES string. pIC50: −log10 of the molar value.

Chain of Tyrosine-protein kinase JAK2 (O60674 whole entry): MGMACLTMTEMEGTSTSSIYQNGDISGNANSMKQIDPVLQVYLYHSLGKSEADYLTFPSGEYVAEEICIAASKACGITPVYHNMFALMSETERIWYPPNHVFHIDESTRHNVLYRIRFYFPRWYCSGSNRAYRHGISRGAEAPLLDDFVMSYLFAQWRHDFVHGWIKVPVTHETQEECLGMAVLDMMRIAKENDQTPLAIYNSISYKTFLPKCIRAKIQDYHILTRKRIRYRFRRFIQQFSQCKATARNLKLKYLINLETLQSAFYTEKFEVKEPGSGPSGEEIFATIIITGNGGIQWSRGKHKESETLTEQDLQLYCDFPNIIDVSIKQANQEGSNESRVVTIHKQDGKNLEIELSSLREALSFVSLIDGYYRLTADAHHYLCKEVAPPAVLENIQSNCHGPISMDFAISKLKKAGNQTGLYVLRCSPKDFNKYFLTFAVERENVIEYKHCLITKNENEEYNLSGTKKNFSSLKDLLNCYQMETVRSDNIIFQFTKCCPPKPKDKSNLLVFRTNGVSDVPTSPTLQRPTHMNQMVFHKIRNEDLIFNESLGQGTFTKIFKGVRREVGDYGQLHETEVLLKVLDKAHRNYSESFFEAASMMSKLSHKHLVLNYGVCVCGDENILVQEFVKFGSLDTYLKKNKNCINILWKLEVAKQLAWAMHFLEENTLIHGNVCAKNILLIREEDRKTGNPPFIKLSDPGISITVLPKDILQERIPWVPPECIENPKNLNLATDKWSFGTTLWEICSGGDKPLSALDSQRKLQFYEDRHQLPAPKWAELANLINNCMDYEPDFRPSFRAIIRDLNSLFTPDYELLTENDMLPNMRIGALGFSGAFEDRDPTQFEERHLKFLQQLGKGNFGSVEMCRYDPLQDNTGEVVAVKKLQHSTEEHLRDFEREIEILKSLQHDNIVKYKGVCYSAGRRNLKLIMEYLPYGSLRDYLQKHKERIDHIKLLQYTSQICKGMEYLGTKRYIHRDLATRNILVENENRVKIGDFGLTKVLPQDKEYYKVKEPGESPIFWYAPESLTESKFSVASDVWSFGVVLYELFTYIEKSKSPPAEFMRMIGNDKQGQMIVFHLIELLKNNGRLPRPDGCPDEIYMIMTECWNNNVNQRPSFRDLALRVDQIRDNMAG
Chain of Tyrosine-protein kinase JAK1 (P23458 whole entry): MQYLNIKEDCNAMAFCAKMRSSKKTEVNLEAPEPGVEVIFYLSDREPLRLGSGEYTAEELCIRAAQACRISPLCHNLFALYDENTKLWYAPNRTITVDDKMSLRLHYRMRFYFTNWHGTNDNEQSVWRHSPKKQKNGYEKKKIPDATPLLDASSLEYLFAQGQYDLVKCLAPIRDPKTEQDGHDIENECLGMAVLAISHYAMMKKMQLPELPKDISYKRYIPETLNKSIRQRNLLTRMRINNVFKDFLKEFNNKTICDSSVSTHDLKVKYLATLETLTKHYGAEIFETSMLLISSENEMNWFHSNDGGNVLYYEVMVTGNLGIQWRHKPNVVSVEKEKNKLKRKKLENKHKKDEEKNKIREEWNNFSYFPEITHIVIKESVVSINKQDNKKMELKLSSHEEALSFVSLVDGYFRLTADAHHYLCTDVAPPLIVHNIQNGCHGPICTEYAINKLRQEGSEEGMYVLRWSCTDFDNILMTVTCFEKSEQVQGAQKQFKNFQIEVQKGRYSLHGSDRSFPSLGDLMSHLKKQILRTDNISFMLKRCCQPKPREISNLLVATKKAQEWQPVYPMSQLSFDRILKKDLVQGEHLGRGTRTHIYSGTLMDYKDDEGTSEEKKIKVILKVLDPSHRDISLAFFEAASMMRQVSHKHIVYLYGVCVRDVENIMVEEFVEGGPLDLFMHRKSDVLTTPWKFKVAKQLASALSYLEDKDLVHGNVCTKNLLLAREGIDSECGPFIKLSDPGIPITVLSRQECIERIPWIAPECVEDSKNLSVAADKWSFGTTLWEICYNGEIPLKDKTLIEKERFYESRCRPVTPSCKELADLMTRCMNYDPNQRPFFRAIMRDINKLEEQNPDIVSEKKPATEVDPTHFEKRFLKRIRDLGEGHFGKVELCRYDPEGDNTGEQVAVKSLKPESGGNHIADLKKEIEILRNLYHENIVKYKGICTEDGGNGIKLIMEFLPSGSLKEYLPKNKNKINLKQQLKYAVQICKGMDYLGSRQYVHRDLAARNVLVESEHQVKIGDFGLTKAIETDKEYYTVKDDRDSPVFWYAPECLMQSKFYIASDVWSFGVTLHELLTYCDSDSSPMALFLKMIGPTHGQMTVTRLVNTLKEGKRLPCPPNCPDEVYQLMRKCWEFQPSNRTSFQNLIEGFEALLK

The pIC50 is the IC50 on a negative log10 scale, so that one unit is a factor of ten. Regarding `CN(c1ncnc2[nH]ccc12)N1CCC(C(=O)NCC(F)(F)F)C1` (configuration not stated), the pIC50 in test [1] was 8.72; in test [2], 7.44; in test [3] it was 7.54.
As to `CN(c1ncnc2[nH]ccc12)N1CC[C@@H](C(=O)NCC(F)(F)F)C1`, the pIC50 was 9.80 in test [1], 8.07 in test [2] and 7.82 in test [3].
On to `CN(c1ncnc2[nH]ccc12)N1CCC(C)(C(=O)NCC(F)(F)F)C1` (configuration not stated), for which the pIC50 in test [1] was 5.30; in test [2], 5.00; in test [3] it was 5.22.
In the same order, the values of `CN(c1ncnc2[nH]ccc12)N1CCCC(C)(C(=O)NCC#N)C1` (configuration not stated) are 5.73, 5.32 and 5.80.
In the same order, the values of `CN(c1ncnc2[nH]ccc12)N1CCCC(N2CCCC2=O)C1` (configuration not stated) are 5.95, 5.46 and 6.46.
On to `CN(CC(F)(F)F)C(=O)C1CCCN(N(C)c2ncnc3[nH]ccc23)C1` (configuration not stated), for which the figures for the pIC50 in test [1], in test [2] and in test [3] were 7.82, 6.78 and 7.11, respectively.
Consider `CN(c1ncnc2[nH]ccc12)N1CCC[C@@H](C(=O)NCC#N)C1`, for which the pIC50 was 9.52 in test [1], 8.44 in test [2] and 8.41 in test [3].
For the molecule `CN(c1ncnc2[nH]ccc12)N1CCC(C(=O)NCC#N)C1` (configuration not stated), the pIC50 in test [1] was 8.48; in test [2] it was 7.37; in test [3], 7.60.
In the same order, the values of `CN(c1ncnc2[nH]ccc12)N1CCCC(C(=O)NCC#N)C1` (configuration not stated) are 8.80, 7.94 and 8.10.
In the same order, the values of `CN(c1ncnc2[nH]ccc12)N1CCCC(C(=O)NCC(F)F)C1` (configuration not stated) are 8.80, 7.79 and 8.08.
For the molecule `CN(c1ncnc2[nH]ccc12)N1CCCC(C(=O)NCCC#N)C1` (configuration not stated), the figures for the pIC50 in test [1] and in test [3] were 7.46 and 6.73, respectively.
Regarding `CC1CCC(C(=O)NCC(F)(F)F)CN1N(C)c1ncnc2[nH]ccc12` (configuration not stated), the negative logarithm of the IC50 (pIC50) was 6.51 in test [1], 5.70 in test [2] and 6.47 in test [3].
`CC1CCC(C(=O)NCC#N)CN1N(C)c1ncnc2[nH]ccc12` (configuration not stated): the pIC50 in test [1] was 6.28; in test [2], 5.84; in test [3], 6.44.
As for `CN(c1ncnc2[nH]ccc12)N1CCCN(C(=O)CC(F)(F)F)CC1`, the negative logarithm of the IC50 (pIC50) in test [1], in test [2] and in test [3] was 5.00 each time.
On to `CN(c1ncnc2[nH]ccc12)N1CCC(C(=O)NCC(F)(F)F)CC1`, for which the figures for the pIC50 in test [1], in test [2] and in test [3] were 7.85, 6.50 and 6.73, respectively.
Turning to `COCNC(=O)C1CCCN(N(C)c2ncnc3[nH]ccc23)C1` (configuration not stated), the figures for the pIC50 in test [1], in test [2] and in test [3] were 7.67, 6.83 and 7.08, respectively.
In the same order, the values of `CN(c1ncnc2[nH]ccc12)N1CC[C@H](C(=O)NCC(F)(F)F)C1` are 7.74, 6.44 and 7.89.
As for `CN(c1ncnc2[nH]ccc12)N1CCCC(C(=O)N2CC(O)C2)C1` (configuration not stated), the results for the pIC50 in test [1], in test [2] and in test [3] were 6.81, 6.09 and 6.29, respectively.
Take `CN(c1ncnc2[nH]ccc12)N1CCC(C(=O)NCC#N)CC1`: the pIC50 in test [1] was 7.92; in test [2] it was 6.56; in test [3], 6.54.
In the case of `CN(c1ncnc2[nH]ccc12)N1CCCC(C(=O)NCC(F)(F)F)C1` (configuration not stated), the pIC50 in test [1] is 8.54; in test [2], 7.48; in test [3] it was 7.79.
Consider `CN(c1ncnc2[nH]ccc12)N1CCC[C@@H](C(=O)NCC(F)(F)F)C1`, for which the pIC50 is 9.15 in test [1], 7.89 in test [2] and 8.21 in test [3].
